A short description of data set [1]: Solubility of compound of Formula 1 in water and solvents of various compositions. The data set is classed as physicochemical. From the text:
Further, it was confirmed that the compound of Formula 1 has the property of reducing the pH of a solution while being dissolved in a solvent.

A short description of data set [2]: Change in API purity during preparation of freeze-drying formulation, UPLC. It counts as physicochemical. The following applies: API powder before dissolving in the solvent composition. As to the method:
A final API freeze-drying formulation was prepared as described in Table 16 below.
In order to confirm the change in purity of the API during the preparation of the final API freeze-drying formulation, the purity of the API powder before dissolving in the solvent composition, and the API purity during the preparation of the API mixture solution and after freeze-drying were measured using UPLC.

These results are taken from US20250152576A1, “INJECTABLE FORMULATION COMPRISING ISOXAZOLINE DERIVATIVE AND METHOD FOR PREPARING SAME” (LG CHEM, LTD., priority 2022, published 2025).

With `CC(C)[C@@]1(C(=O)N[C@H]2CC(=O)O[C@]2(O)CF)CC(c2nccc3ccccc23)=NO1` [Compound of Formula 1, (R)-N-((2S,3S)-2-(fluoromethyl)-2-hydroxy-5-oxotetrahydrofuran-3-yl)-5-isopropyl-3-(isoquinolin-1-yl)-4,5-dihydroisoxazol-5-carboxamide], in data set [1] (acidic solvents of pH 4 or less containing phosphate buffer, solubilizing agent and pH adjusting agent), the “solubility in acidic solvents” value is “hardly soluble”. For the same compound, the solubility in water entry in data set [1] (water) is on record as “poorly soluble in water”. In addition, in data set [1] (weak acidic solvents of pH 6 or more and basic solvents of pH 7.5 or more), the “solubility in weak acidic and basic solvents” value is given as “dissolved well”. Further, the “Purity (%)” value in data set [2] is on record as 98.6%.
